A word on the IC50: it is the concentration that gives 50% inhibition. High values mean weaker potency in that assay, low ones greater potency in that assay.

Consider 17 compounds from patent publication US10695334B2, “Heteroaromatic carboxamide derivatives as plasma kallikrein inhibitors” (Boehringer Ingelheim International GmbH, priority 2018, dated 2020).

The structures appear in SMILES notation. Where only a bound is given, the exact number is not on record here.

One experiment deals with human TK1 (Homo sapiens (Human), UniProt P06870). In words: Inhibition of TK1 (Ki). To be noted: column head prints IC50, text above the table says Ki values. The experiment is classed as biochemical. As for the experimental part:
The ability of compounds of formula (I) to inhibit plasma kallikrein (PKK), Factor Xlla (FXIIa), Factor Xla (FXIa), Factor Xa (FXa), Factor Ila (alpha-thrombin; FIIa), plasmin, trypsin, tissue kallikrein 1 (TK1), Factor VIIa (FVIIa), or FVIIa complexed with Tissue Factor, phospholipids and CaCl2 (FVIIa/TF/PL/CaCl2) was determined using the following biochemical assays in assay buffer (100 mM Tris, 150 mM NaCL, adjusted to a pH of 7.8 with HCl, and containing 0.1% (w/v) BSA and 0.05% (v/v) Tween20) in the presence of 1% (v/v) DMSO: EVALUATION OF THE INHIBITION OF PKK USING AN ENDPOINT ASSAY Human PKK (0.01 U/mL; Enzyme Research Laboratories) or rat PKK (0.625 nM; produced in-house) was incubated for 1 h at room temperature with 0.10 μM fluorogenic substrate H-Pro-Phe-Arg-AMC (11295 from Bachem) and various concentrations of the test compound in assay buffer. Subsequently, PPACK II (Calbiochem) was added as a stop solution to achieve a final concentration of 1 μM and fluorescence was measured using an Envision Reader (PerkinElmer) with the wavelength excitation setting of 355 nm and the wavelength emission setting of 460 nm.
Prior to the assay, human TK1 (R&D Systems) was activated by incubation with human trypsin (Calbiochem) in a 1:10,000 ratio for 15 min at 37° C. For assaying TK1 inhibitory activity, activated TK1 (31.25 nM or 1 U/mL) was incubated at 24° C. with 0.1 mM fluorogenic substrate H-Pro-Phe-Arg-AMC (11295 from Bachem) and various concentrations of the test compound in assay buffer. Measurements were performed in a kinetic interval every 2nd minute for 16 min using a Spectramax M5 (Molecular Devices) with the following settings of the wavelength excitation of 350 nm and wavelength emission of 450 nm.
The average Vmax values for the time interval from 2 to 12 min after initiation of the assay (expressed as either delta OD/min for assays using a chromogenic substrate or delta RFU/min for assays using a fluorigenic substrate, respectively) were plotted versus the Log of the concentration in molar of the evaluated inhibitor compound. The pIC50 values were then fitted using a four-parametric fitting procedure using GraphPad Prism (version 6; GraphPad Software, Inc.). Respective Ki values were obtained by correction of the IC50 values for the respective KM value of the used substrate (see Table A for the obtained KM values of the used substrates) using the following formula: […]
Where the IC50 is in molar and the KM value in mM.

For a further experiment, the target named is Human PKK (Homo sapiens (Human), UniProt P03952). In words: Inhibition of PKK, endpoint assay (human PKK). To be noted: substrate H-Pro-Phe-Arg-AMC, 1 h room temperature. The experiment is classed as biochemical. As for the experimental part:
Subsequently, PPACK II (Calbiochem) was added as a stop solution to achieve a final concentration of 1 μM and fluorescence was measured using an Envision Reader (PerkinElmer) with the wavelength excitation setting of 355 nm and the wavelength emission setting of 460 nm.

Sequence of human TK1 (P06870 25-262): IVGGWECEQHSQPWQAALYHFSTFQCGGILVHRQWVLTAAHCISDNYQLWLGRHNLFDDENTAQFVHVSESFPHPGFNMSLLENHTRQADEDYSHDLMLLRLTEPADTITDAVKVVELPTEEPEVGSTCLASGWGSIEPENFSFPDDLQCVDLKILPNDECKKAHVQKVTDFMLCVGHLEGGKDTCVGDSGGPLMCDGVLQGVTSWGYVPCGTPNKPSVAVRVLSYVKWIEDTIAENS
Sequence of Human PKK (P03952 391-638): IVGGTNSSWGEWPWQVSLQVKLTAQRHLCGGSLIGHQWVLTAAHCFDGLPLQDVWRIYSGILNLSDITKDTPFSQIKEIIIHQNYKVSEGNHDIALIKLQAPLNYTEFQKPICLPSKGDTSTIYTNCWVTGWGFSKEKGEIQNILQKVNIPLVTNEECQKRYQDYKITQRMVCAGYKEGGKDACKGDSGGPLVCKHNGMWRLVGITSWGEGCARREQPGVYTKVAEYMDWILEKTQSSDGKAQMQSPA
Sequence of Human PKK (P03952 20-390 partner): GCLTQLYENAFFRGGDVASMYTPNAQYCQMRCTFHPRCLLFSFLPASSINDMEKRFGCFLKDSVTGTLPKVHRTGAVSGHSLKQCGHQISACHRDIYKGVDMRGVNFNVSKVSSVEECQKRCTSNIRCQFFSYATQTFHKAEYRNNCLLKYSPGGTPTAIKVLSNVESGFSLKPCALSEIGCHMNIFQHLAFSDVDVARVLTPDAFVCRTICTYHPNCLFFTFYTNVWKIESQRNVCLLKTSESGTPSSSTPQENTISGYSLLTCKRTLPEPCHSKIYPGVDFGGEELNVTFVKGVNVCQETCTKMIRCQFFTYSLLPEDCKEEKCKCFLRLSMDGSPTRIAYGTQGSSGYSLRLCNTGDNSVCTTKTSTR

Regarding `Cc1nc(N2CC3CC3C2)ncc1Cn1cc(C(=O)N[C@@H]2CCc3c(C)n[nH]c32)c(C)n1` (stereo partly drawn) [Example 25, 1-[(2-{3-Azabicyclo[3.1.0]hexan-3-yl}-4-methyl-pyrimidin-5-yl)methyl]-3-methyl-N-[(6R)-3-methyl-1H,4H,5H,6H-cyclopenta[c]pyrazol-6-yl]-1H-pyrazole-4-carboxamide], the IC50 against human TK1 was greater than 10000 nM; on Human PKK it was 3 nM.
As to `Cc1nc(N2CC3(CC3)C2)ncc1Cn1cc(C(=O)N[C@@H]2CCc3c(C)n[nH]c32)c2cncnc21` [Example 33, 7-[(2-{5-Azaspiro[2.3]hexan-5-yl}-4-methyl-pyrimidin-5-yl)methyl]-N-[(6R)-3-methyl-1H,4H,5H,6H-cyclopenta[c]pyrazol-6-yl]-7H-pyrrolo[2,3-d]pyrimidine-5-carboxamide], the figures for the IC50 against human TK1 and on Human PKK were greater than 10000 nM and 3 nM, respectively.
In the case of `Cc1nc(N2CCC3(CC3)C2)ccc1Cn1cc(C(=O)N[C@@H]2CCc3c2n[nH]c3C)cn1` [Example 45, 1-[(6-{5-Azaspiro[2.4]heptan-5-yl]-2-methylpyridin-3-yl)methyl]-N-[(6R)-3-methyl-2H,4H,5H,6H-cyclopenta[c]pyrazol-6-yl]-1H-pyrazole-4-carboxamide], the concentration for half-maximal inhibition (IC50) was greater than 10000 nM on human TK1 and 4 nM at Human PKK.
As to `Cc1nc(N2CCC3CC3C2)ccc1Cn1cc(C(=O)N[C@@H]2CCc3c2n[nH]c3C)cn1` (stereo partly drawn) [Example 48, 1-[(6-{3-Azabicyclo[4.1.0]heptan-3-yl}-2-methylpyridin-3-yl)methyl]-N-[(6R)-3-methyl-2H,4H,5H,6H-cyclopenta[c]pyrazol-6-yl]-1H-pyrazole-4-carboxamide], the IC50 against human TK1 is greater than 10000 nM; against Human PKK, 5 nM.
The matching figures for `Cc1nc(N2C[C@@H]3[C@@H](C)[C@@H]3C2)ccc1Cn1cc(C(=O)N[C@@H]2CCc3c2n[nH]c3C)cn1` [Example 79, N-[(6R)-3-Methyl-2H,4H,5H,6H-cyclopenta[c]pyrazol-6-yl]-1-({2-methyl-6-[(1R,5S,6R)-6-methyl-3-azabicyclo[3.1.0]hexan-3-yl]pyridin-3-yl}methyl)-1H-pyrazole-4-carboxamide]: greater than 10000 nM and 4 nM.
As to `Cc1nc(N2CC3CC3C2C)ccc1Cn1cc(C(=O)N[C@@H]2CCc3c2n[nH]c3C)cn1` (stereo partly drawn) [Example 82, N-[(6R)-3-Methyl-2H,4H,5H,6H-cyclopenta[c]pyrazol-6-yl]-1-[(2-methyl-6-{2-methyl-3-azabicyclo[3.1.0]hexan-3-yl}pyridin-3-yl)methyl]-1H-pyrazole-4-carboxamide], the IC50 against human TK1 is greater than 10000 nM; against Human PKK, 2 nM.
`Cc1nc(N2CC3CC3C2)ccc1Cn1cc(C(=O)N[C@@H]2CCc3c(C)n[nH]c32)nn1` (stereo partly drawn) [Example 86, 1-[(6-{3-Azabicyclo[3.1.0]hexan-3-yl}-2-methylpyridin-3-yl)methyl]-N-[(6R)-3-methyl-1H,4H,5H,6H-cyclopenta[c]pyrazol-6-yl]-1H-1,2,3-triazole-4-carboxamide]: the values for the IC50 at human TK1 and against Human PKK were greater than 10000 nM and 0.4 nM, respectively.
For the compound `Cc1nc(N2CC3(CC3)C2)ccc1Cn1cnc(C(=O)N[C@@H]2CCc3c(C)n[nH]c32)c1` [Example 88, 1-[(6-{5-Azaspiro[2.3]hexan-5-yl}-2-methylpyridin-3-yl)methyl]-N-[(6R)-3-methyl-2H,4H,5H,6H-cyclo-penta[c]pyrazol-6-yl]-1H-imidazole-4-carboxamide], the half-maximal inhibitory concentration (IC50) at human TK1 was greater than 10000 nM; against Human PKK, 1 nM.
In the case of `Cc1nc(N2CC3C(C2)C3(F)F)ccc1Cn1cnc(C(=O)N[C@@H]2CCc3c2n[nH]c3C)c1` (stereo partly drawn) [Example 89, 1-[(6-{6,6-Difluoro-3-azabicyclo[3.1.0]hexan-3-yl}-2-methylpyridin-3-yl)methyl]-N-[(6R)-3-methyl-2H,4H,5H,6H-cyclopenta[c]pyrazol-6-yl]-1H-imidazole-4-carboxamide], the 50% inhibitory concentration (IC50) against human TK1 is greater than 10000 nM; against Human PKK, 0.6 nM.
The matching figures for `Cc1nc(N2CC3CC3C2)ccc1Cn1cnc(C(=O)N[C@@H]2CCc3c2n[nH]c3C)c1` (stereo partly drawn) [Example 90, 1-[(6-{3-Azabicyclo[3.1.0]hexan-3-yl}-2-methyl-pyridin-3-yl)methyl]-N-[(6R)-3-methyl-2H,4H,5H,6H-cyclopenta[c]pyrazol-6-yl]-1H-imidazole-4-carboxamide]: greater than 10000 nM and 0.8 nM.
Take `Cc1nc(N2CC3C(C2)C3(F)F)ncc1Cn1cnc(C(=O)N[C@@H]2CCc3c2n[nH]c3C)c1` (stereo partly drawn) [Example 92, 1-[(2-{6,6-Difluoro-3-azabicyclo[3.1.0]hexan-3-yl}-4-methylpyrimidin-5-yl)methyl]-N-[(6R)-3-methyl-2H,4H,5H,6H-cyclopenta[c]pyrazol-6-yl]-1H-imidazole-4-carboxamide]: the IC50 on human TK1 is greater than 10000 nM; against Human PKK, 1 nM.
As to `Cc1nc(N2CC3(CC3)C2)ncc1Cn1cnc(C(=O)N[C@@H]2CCc3c(C)n[nH]c32)c1` [Example 93, 1-[(2-{5-Azaspiro[2.3]hexan-5-yl}-4-methyl-pyrimidin-5-yl)methyl]-N-[(6R)-3-methyl-2H,4H,5H,6H-cyclopenta[c]pyrazol-6-yl]-1H-imidazole-4-carboxamide], the IC50 at human TK1 is greater than 10000 nM; against Human PKK, 4 nM.
As for `Cc1nc(N2C[C@@H]3[C@@H](CO)[C@@H]3C2)ccc1Cn1cc(C(=O)N[C@@H]2CCc3c(C)n[nH]c32)cn1` [Example 94, 1-({6-[(1R,5S,6R)-6-(hydroxymethyl)-3-azabicyclo[3.1.0]hexan-3-yl]-2-methylpyridin-3-yl}methyl)-N-[(6R)-3-methyl-1H,4H,5H,6H-cyclopenta[c]pyrazol-6-yl]-1H-pyrazole-4-carboxamide], the IC50 at human TK1 is greater than 10000 nM; on Human PKK, 2 nM.
In turn, `Cc1nc(N2C[C@@H]3[C@@H](CF)[C@@H]3C2)ccc1Cn1cc(C(=O)N[C@@H]2CCc3c2n[nH]c3C)cn1` [Example 95, 1-({6-[(1R,5S,6R)-6-(Fluoromethyl)-3-azabicyclo[3.1.0]hexan-3-yl]-2-methylpyridin-3-yl}methyl)-N-[(6R)-3-methyl-2H,4H,5H,6H-cyclopenta[c]pyrazol-6-yl]-1H-pyrazole-4-carboxamide] showed an IC50 at Human PKK of 4 nM. This lies in the single-digit nanomolar range.
`Cc1nc(N2CC3CC3C2)ccc1Cn1cc(C(=O)N[C@@H]2CCc3c2n[nH]c3C)c(C(C)(C)O)n1` (stereo partly drawn) [Example 106, 1-[(6-{3-Azabicyclo[3.1.0]hexan-3-yl}-2-methylpyridin-3-yl)methyl]-3-(2-hydroxypropan-2-yl)-N-[(6R)-3-methy-2H,4H,5H,6H-cyclopenta[c]pyrazol-6-yl]-1H-pyrazole-4-carboxamide] displayed a concentration for half-maximal inhibition (IC50) at Human PKK of 0.9 nM. This IC50 lies about 4.4-fold lower than the previous one.
`Cc1nc(N2CC3CC3C2)ccc1Cn1cnc(C(=O)N[C@@H]2CCc3c2n[nH]c3C)n1` (stereo partly drawn) [Example 107, 1-[(6-{3-Azabicyclo[3.1.0]hexan-3-yl}-2-methylpyridin-3-yl)methyl]-N-[(6R)-3-methyl-2H,4H,5H,6H-cyclopenta[c]pyrazol-6-yl]-1H-1,2,4-triazole-3-carboxamide] returned an IC50 against Human PKK of 7 nM.
With `Cc1nc(N2CC3CC3C2)ccc1Cc1ccc(C(=O)N[C@@H]2CCc3c(C)n[nH]c32)[nH]1` (stereo partly drawn) [Example 109, 5-[(6-{3-Azabicyclo[3.1.0]hexan-3-yl}-2-methylpyridin-3-yl)methyl]-N-[(6R)-3-methyl-1H,4H,5H,6H-cyclopenta[c]pyrazol-6-yl]-1H-pyrrole-2-carboxamide], the IC50 is greater than 10000 nM against human TK1 and 3 nM against Human PKK.
